Reference: the CheMixHub viscosity set
Several values for one entry are separate records, joined by “and”; a condition that tells them apart may be missing. Equal entries are not always repeated. ± gives the uncertainty stated by the source.

Legend:
[1] = xn = mol fraction of the nth substance listed

O=C(O)C(Cl)Cl
101 kPa
Conditions	viscosity [mPa·s]
308.15 K	4.779 ± 0.2
323.15 K	3.243 ± 0.14

O=Cc1ccccc1
viscosity
Conditions	293.15 K	298.1 K	298.15 K	303.15 K	308.15 K	313.15 K	318.15 K	323.15 K
100 kPa	1.495 ± 0.036 mPa·s	–	–	–	–	–	–	–
101 kPa	–	1.37 ± 0.032 mPa·s	1.392 ± 0.033 mPa·s	1.26 ± 0.0099 mPa·s	1.215 ± 0.033 mPa·s	–	0.9051 ± 0.091 mPa·s and 1.051 ± 0.028 mPa·s	0.975 ± 0.026 mPa·s
101.33 kPa	1.397 ± 0.19 mPa·s	–	1.445 ± 0.012 mPa·s and 1.321 ± 0.012 mPa·s and 1.385 ± 0.013 mPa·s	1.278 ± 0.18 mPa·s	1.13 ± 0.014 mPa·s and 1.178 ± 0.011 mPa·s	1.17 ± 0.17 mPa·s	1.034 ± 0.01 mPa·s	1.072 ± 0.17 mPa·s

c1ccc(Nc2ccccc2)cc1
Conditions	viscosity [mPa·s]
323.15 K, 101 kPa	5.95 ± 0.35

C=C(C)C(=O)OCCCCCCC
101 kPa
Conditions	viscosity [mPa·s]
303 K	1.516 ± 0.029
313 K	1.275 ± 0.021
323 K	1.105 ± 0.015

CCCCCCCCCCCCOS(=O)(=O)[O-].CCCCn1cc[n+](C)c1
Conditions	viscosity [mPa·s]
303.15 K, 101 kPa	1.32e+07 ± 4.3e+06

Cc1ccc(C)cc1
Conditions	viscosity
293.15 K, 101 kPa	0.5756 ± 0.0088 mPa·s and 0.6402 ± 0.017 mPa·s and 0.6388 ± 0.0058 mPa·s
293.15 K, 101.2 kPa	0.6517 ± 0.029 mPa·s
293.15 K, 101.3 kPa	0.6332 ± 0.017 mPa·s and 0.6589 ± 0.04 mPa·s
298 K, 101.3 kPa	0.615 ± 0.008 mPa·s
298.15 K, 100 kPa	0.6118 ± 0.073 mPa·s
298.15 K, 101.2 kPa	0.6083 ± 0.027 mPa·s
303.15 K, 101.2 kPa	0.5753 ± 0.026 mPa·s
303.15 K, 101.3 kPa	0.5702 ± 0.0041 mPa·s
303.15 K, 101.32 kPa	0.564 ± 0.015 mPa·s
303.15 K, 101.33 kPa	0.5694 ± 0.015 mPa·s and 0.519 ± 0.008 mPa·s and 0.57 ± 0.004 mPa·s
307.35 K, 101.33 kPa	0.539 ± 0.0095 mPa·s
308.15 K, 100 kPa	0.5508 ± 0.066 mPa·s
308.15 K, 101.2 kPa	0.5364 ± 0.024 mPa·s
308.15 K, 101.3 kPa	0.5381 ± 0.0039 mPa·s
313.15 K, 101.2 kPa	0.5094 ± 0.023 mPa·s
313.15 K, 101.3 kPa	0.5309 ± 0.014 mPa·s and 0.5117 ± 0.031 mPa·s and 0.5086 ± 0.0037 mPa·s
313.15 K, 101.33 kPa	0.5064 ± 0.014 mPa·s
318 K, 101.3 kPa	0.4919 ± 0.019 mPa·s
318.15 K, 101 kPa	0.4925 ± 0.014 mPa·s and 0.462 ± 0.01 mPa·s and 0.483 ± 0.013 mPa·s
318.15 K, 101.2 kPa	0.5049 ± 0.023 mPa·s
318.15 K, 101.3 kPa	0.4817 ± 0.0036 mPa·s
323.15 K, 101.3 kPa	0.4738 ± 0.013 mPa·s and 0.4571 ± 0.028 mPa·s

CC(F)F
101 kPa
Conditions	viscosity [mPa·s]
293.35 K	0.172 ± 0.0047
294.75 K	0.177 ± 0.0049
313.35 K	0.1402 ± 0.0038
314.25 K	0.1409 ± 0.0038

CC(O)C(C)O (stereo unspecified)
viscosity [mPa·s]
Conditions	308.15 K	313.15 K	318.15 K	323.15 K
101 kPa	–	–	–	16.98 ± 1
101.3 kPa	57.11 ± 0.39	39.26 ± 0.38	27.62 ± 0.27	–

Fc1ccccc1
101 kPa
Conditions	viscosity
303.15 K	0.514 ± 0.011 mPa·s and 0.523 ± 0.019 mPa·s and 0.523 ± 0.011 mPa·s
308.15 K	0.495 ± 0.018 mPa·s and 0.495 ± 0.01 mPa·s
313.15 K	0.46 ± 0.011 mPa·s and 0.467 ± 0.017 mPa·s and 0.467 ± 0.01 mPa·s

[Cl-].[Cl-].[Cl-].[Cl-].[Ge+4]
101 kPa
Conditions	viscosity [mPa·s]
293.15 K	0.599 ± 0.015
298.15 K	0.589 ± 0.015
303.15 K	0.561 ± 0.014
313.15 K	0.516 ± 0.013

CCOC(=O)c1ccccc1C(=O)OCC
Conditions	viscosity [mPa·s]
313.15 K, 101.33 kPa	6.3 ± 0.063

c1ccsc1
viscosity
Conditions	293.15 K	298.15 K	303.15 K	308.15 K	313.15 K	318.15 K	323.15 K
100 kPa	–	0.655 ± 0.094 mPa·s	–	0.585 ± 0.091 mPa·s	–	0.525 ± 0.088 mPa·s	–
101 kPa	0.653 ± 0.065 mPa·s	0.62 ± 0.01 mPa·s and 0.615 ± 0.062 mPa·s	0.58 ± 0.058 mPa·s	0.54 ± 0.01 mPa·s and 0.545 ± 0.055 mPa·s	0.518 ± 0.052 mPa·s	0.48 ± 0.01 mPa·s and 0.491 ± 0.049 mPa·s	0.464 ± 0.047 mPa·s

CCCCCCCCCCCCO
Conditions	viscosity [mPa·s]
303.15 K, 101.33 kPa	12.95 ± 0.12

[Br-].[Br-].[Br-].[Br-].[Sn+4]
101 kPa
Conditions	viscosity
313.15 K	1.97 ± 0.07 mPa·s and 2.101 ± 0.055 mPa·s
323.15 K	1.78 ± 0.07 mPa·s

CCCCCCCCN
viscosity
Conditions	303.15 K	308.15 K	313.15 K
101 kPa	1.169 ± 0.023 mPa·s and 1.169 ± 0.013 mPa·s and 1.165 ± 0.0096 mPa·s	0.9267 ± 0.095 mPa·s and 0.9267 ± 0.012 mPa·s	0.9864 ± 0.0085 mPa·s
101.33 kPa	1.165 ± 0.0096 mPa·s	–	0.9864 ± 0.0085 mPa·s

CC(C)CCCC(C)CCCC(C)CCCC(C)C (stereo unspecified)
Conditions	viscosity [mPa·s]
298.15 K, 101.33 kPa	5.479 ± 0.066

CC(C)CCCC(C)CCCC(C)CCCCC(C)CCCC(C)CCCC(C)C (stereo unspecified)
100 kPa
Conditions	viscosity [mPa·s]
293.15 K	35.3 ± 2.2
313.15 K	15.4 ± 0.9

OCCOCCO
viscosity
Conditions	293.15 K	298.1 K	298.15 K	308.15 K	313.15 K
101 kPa	38.82 ± 0.25 mPa·s and 38.82 ± 0.42 mPa·s and 38.82 ± 0.19 mPa·s (2×)	27.87 ± 2.3 mPa·s	27.15 ± 1.1 mPa·s and 27.14 ± 1.1 mPa·s	17.26 ± 0.7 mPa·s	14.81 ± 0.6 mPa·s
101.32 kPa	33.6 ± 2.3 mPa·s	–	–	–	12.8 ± 0.88 mPa·s
101.33 kPa	–	–	26.81 ± 0.46 mPa·s	–	–

NCCO.O=CO
viscosity
Conditions	293.15 K	298.15 K	303.15 K	308.15 K	313.15 K	318.15 K	323.15 K
100 kPa	–	79.13 ± 8.1 mPa·s and 79.13 ± 32 mPa·s	63.01 ± 6.4 mPa·s and 63.01 ± 25 mPa·s	51.79 ± 5.2 mPa·s and 51.79 ± 21 mPa·s	43.03 ± 4.4 mPa·s and 43.03 ± 17 mPa·s	36.34 ± 3.7 mPa·s and 36.34 ± 15 mPa·s	30.76 ± 3.1 mPa·s and 30.76 ± 12 mPa·s
101 kPa	268.9 ± 21 mPa·s	198.1 ± 16 mPa·s	149.5 ± 11 mPa·s	115.4 ± 8.3 mPa·s	91 ± 6.2 mPa·s	72.85 ± 4.8 mPa·s	58.64 ± 3.8 mPa·s

COC(=O)OCC(F)(F)F
100 kPa
Conditions	viscosity [mPa·s]
298.15 K	1 ± 0.022
313.15 K	0.74 ± 0.016

CCCOC(=O)CCC + CCCCCCCCCCCCCC
[1], 298.15 K, 101.33 kPa
Conditions	viscosity [mPa·s]
x2 = 0.0852	0.852 ± 0.008
x2 = 0.1135	0.877 ± 0.008
x2 = 0.154	0.911 ± 0.009
x2 = 0.2133	0.967 ± 0.009
x2 = 0.2994	1.054 ± 0.01
x2 = 0.3667	1.127 ± 0.011
x2 = 0.4774	1.25 ± 0.012
x2 = 0.6061	1.413 ± 0.013
x2 = 0.7085	1.558 ± 0.014
x2 = 0.8446	1.786 ± 0.016
x2 = 0.9178	1.909 ± 0.017

O=[N+]([O-])[O-].O=[N+]([O-])[O-].[Sr+2] + O
viscosity [mPa·s], [1], 100 kPa
Conditions	x1 = 0.004	x1 = 0.009	x1 = 0.02	x1 = 0.04	x1 = 0.05
298.15 K	0.9435 ± 0.037	1.029 ± 0.041	1.226 ± 0.048	1.628 ± 0.064	2.52 ± 0.099
323.15 K	0.589 ± 0.023	0.639 ± 0.025	0.775 ± 0.031	1.012 ± 0.04	1.524 ± 0.06

CCCOC(=O)CCC + CCCCCCCCCC
[1], 298.15 K, 101.33 kPa
Conditions	viscosity [mPa·s]
x2 = 0.107	0.775 ± 0.008
x2 = 0.1388	0.773 ± 0.008
x2 = 0.1735	0.771 ± 0.008
x2 = 0.2644	0.768 ± 0.008
x2 = 0.3659	0.768 ± 0.008
x2 = 0.4232	0.769 ± 0.008
x2 = 0.5092	0.773 ± 0.009
x2 = 0.6715	0.79 ± 0.009
x2 = 0.7654	0.804 ± 0.01
x2 = 0.8807	0.828 ± 0.01
x2 = 0.9329	0.841 ± 0.011

O=Cc1ccccc1 + CC(C)CCO
[1], 298.1 K, 101 kPa
Conditions	viscosity [mPa·s]
x1 = 0.1103	2.842 ± 0.06
x1 = 0.202	2.39 ± 0.051
x1 = 0.2988	2.057 ± 0.045
x1 = 0.3333	1.959 ± 0.043
x1 = 0.4051	1.809 ± 0.04
x1 = 0.4839	1.67 ± 0.037
x1 = 0.6101	1.51 ± 0.034
x1 = 0.6944	1.44 ± 0.033
x1 = 0.7979	1.373 ± 0.032
x1 = 0.8987	1.34 ± 0.031

CC(C)CCCC(C)CCCC(C)CCCCC(C)CCCC(C)CCCC(C)C (stereo unspecified) + CCCCCCCC
viscosity [mPa·s], [1], 100 kPa
Conditions	x1 = 0.238	x1 = 0.492	x1 = 0.709
293.15 K	2.43 ± 0.15	7.43 ± 0.45	15.6 ± 0.9
313.15 K	1.6 ± 0.1	4.27 ± 0.25	7.68 ± 0.46
